Here are results for 33 compounds from US6750228B1, “Aromatic sulfone hydroxamic acid metalloprotease inhibitor” (priority 1997, dated 2004).

Holding throughout (assay): biochemical
One experiment has as its target T1, MMP-1 (Homo sapiens, UniProt P03956).
T1 construct: made in house; host or cells: transfected HT-1080 cells (provided by Dr. Harold Welgus, Washington University)
T1 sequence (P03956 100-469): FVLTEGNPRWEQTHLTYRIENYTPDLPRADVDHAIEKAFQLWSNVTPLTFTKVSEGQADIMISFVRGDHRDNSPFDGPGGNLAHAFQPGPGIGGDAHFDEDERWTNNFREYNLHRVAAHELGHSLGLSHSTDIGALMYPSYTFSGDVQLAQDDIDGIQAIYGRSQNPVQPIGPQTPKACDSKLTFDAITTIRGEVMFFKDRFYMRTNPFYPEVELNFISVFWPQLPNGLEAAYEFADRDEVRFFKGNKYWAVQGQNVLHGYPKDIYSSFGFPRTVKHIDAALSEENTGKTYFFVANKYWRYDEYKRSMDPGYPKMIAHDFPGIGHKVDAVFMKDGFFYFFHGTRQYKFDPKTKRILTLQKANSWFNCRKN
The following applies: recombinant human MMP-1, MCA peptide substrate 4 μM, pH 7.5, room temperature; read-out: MMP-1 IC50. In a few lines:
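Substrate MCA-PLGL-Dpa-AR-NH2 at 4 μM final; pH 7.5 Tris/NaCl/CaCl2 buffer with 0.05% polyethyleneglycol lauryl ether, 1% DMSO, room temperature. MMP-1 was expressed in transfected HT-1080 cells and APMA-activated.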

The target in another experiment is T2, MMP-13 (Homo sapiens, UniProt P45452).
T2 construct: made in house; host or cells: baculovirus / insect cells
As to conditions: recombinant human MMP-13, MCA peptide substrate 4 μM, pH 7.5, room temperature; read-out: MMP-13 IC50. In a few lines: (§1)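 APMA- or trypsin-activated enzymes were preincubated with inhibitor for 5 min at room temperature, then the fluorogenic substrate MCA-Pro-Leu-Gly-Leu-Dpa-Ala-Arg-NH2 was added to a final 4 μM.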

Another experiment concerns the target T3, MMP-2 (Homo sapiens, UniProt P08253).
T3 construct: made in house; provided by Dr. Gregory Goldberg, Washington University
T3 sequence (P08253 110-660): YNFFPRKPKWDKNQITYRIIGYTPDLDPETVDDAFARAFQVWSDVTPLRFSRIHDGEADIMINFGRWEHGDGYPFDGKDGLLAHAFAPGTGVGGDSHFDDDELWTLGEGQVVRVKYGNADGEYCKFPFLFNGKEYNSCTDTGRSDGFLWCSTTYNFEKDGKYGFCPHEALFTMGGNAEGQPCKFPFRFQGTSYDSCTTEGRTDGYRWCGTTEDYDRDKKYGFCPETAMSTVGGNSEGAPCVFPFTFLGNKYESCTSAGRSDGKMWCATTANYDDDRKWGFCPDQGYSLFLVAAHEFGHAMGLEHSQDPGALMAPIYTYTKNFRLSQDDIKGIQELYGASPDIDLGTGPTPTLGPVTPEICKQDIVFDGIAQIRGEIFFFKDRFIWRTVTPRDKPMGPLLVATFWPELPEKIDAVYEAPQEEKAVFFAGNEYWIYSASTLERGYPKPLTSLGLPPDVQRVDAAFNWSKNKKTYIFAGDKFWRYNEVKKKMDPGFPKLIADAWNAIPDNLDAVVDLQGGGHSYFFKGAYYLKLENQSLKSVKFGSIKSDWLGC
The following applies: recombinant human MMP-2, MCA peptide substrate 4 μM, pH 7.5, room temperature; read-out: MMP-2 IC50. In a few lines:
as §1

pIC50: −log10 of the molar value.

Broadly, the pIC50 is the negative decadic logarithm of the IC50, by convention in mol/L.

Take `O=C(NO)C1(S(=O)(=O)c2ccc(N3CCC(OCc4ccc(F)cc4)CC3)cc2)CCN(C2CC2)CC1` [Example 397]: the negative logarithm of the IC50 (pIC50) was under 5.00 at MMP-1, 8.36 on MMP-13 and 7.15 on MMP-2.
`COc1cccc(CO[C@@H]2CCN(c3ccc(S(=O)(=O)C4(C(=O)NO)CCN(C5CC5)CC4)cc3)C2)c1` [Example 398]: the negative-log IC50 (pIC50) on MMP-1 is under 5.00; at MMP-13 it was 8.15; on MMP-2, 7.15.
The corresponding values for `O=C(NO)C1(S(=O)(=O)c2ccc(N3CCC(OCc4cccc(C(F)(F)F)c4)CC3)cc2)CCN(C2CC2)CC1` [Example 402] are under 5.00, 7.80 and 6.47.
In the case of `O=C(NO)C1(S(=O)(=O)c2ccc(N3CCC(OCc4ccc(F)c(C(F)(F)F)c4)CC3)cc2)CCN(C2CC2)CC1` [Example 408], the values for the negative logarithm of the IC50 (pIC50) on MMP-1, at MMP-13 and on MMP-2 were under 5.00, 7.60 and 6.10, respectively.
In the case of `O=C(NO)C1(S(=O)(=O)c2ccc(N3CCC(S(=O)(=O)c4ccccc4)CC3)cc2)CCN(C2CC2)CC1` [Example 409], the negative-log IC50 (pIC50) on MMP-1 was under 5.00; at MMP-13 it was 7.65; on MMP-2, 6.56.
For `CSc1nccc(N2CCC(C(=O)NO)(S(=O)(=O)c3ccc(Oc4ccc(OC(F)(F)F)cc4)cc3)CC2)n1` [Example 410], the negative logarithm of the IC50 (pIC50) is under 5.00 at MMP-1, 9.22 at MMP-13 and 9.60 at MMP-2.
The like results for `CCOc1cc(N2CCC(C(=O)NO)(S(=O)(=O)c3ccc(Oc4ccc(OC(F)(F)F)cc4)cc3)CC2)ncn1` [Example 411] were, in that order, under 5.00, 9.70 and over 10.00.
For the compound `CC(=N)N1CCC(C(=O)NO)(S(=O)(=O)c2ccc(Oc3ccc(OC(F)(F)F)cc3)cc2)CC1` [Example 412], the figures for the pIC50 on MMP-1, on MMP-13 and at MMP-2 were 5.19, 9.40 and 9.70, respectively.
Regarding `O=C(NO)C1(S(=O)(=O)c2ccc(Oc3ccc(OC(F)(F)F)cc3)cc2)CCN(C2=NCCN2)CC1` [Example 413], the pIC50 on MMP-1 is 5.10; on MMP-13 it was 8.96; at MMP-2, 9.52.
On to `O=C(NO)C1(S(=O)(=O)c2ccc(N3CCC(OCc4ccc(F)cc4C(F)(F)F)CC3)cc2)CCN(C2CC2)CC1` [Example 414], for which the pIC50 on MMP-1 is under 5.00; on MMP-13, 7.30; at MMP-2 it was 5.82.
Take `O=C(NO)C1(S(=O)(=O)c2ccc(N3CCC(Sc4ccc(OC(F)(F)F)cc4)CC3)cc2)CCN(C2CC2)CC1` [Example 415]: the pIC50 on MMP-1 is under 5.00; on MMP-13, 7.30; on MMP-2, 6.61.
With `O=CN1CCC(C(=O)NO)(S(=O)(=O)c2ccc(Oc3ccc(OC(F)(F)F)cc3)cc2)CC1` [Example 416], the pIC50 at MMP-1 was 5.52; at MMP-13, 9.40; on MMP-2, 9.70.
In the case of `O=C(NO)C1(S(=O)(=O)c2ccc(N3CCC(OCc4ccc(OC(F)(F)F)cc4)CC3)cc2)CCN(C2CC2)CC1` [Example 418], the negative-log IC50 (pIC50) was under 5.00 on MMP-1, 8.15 on MMP-13 and 5.85 on MMP-2.
Turning to `O=C(NO)C1(S(=O)(=O)c2ccc(N3CCC(OCc4ccc(Cl)cc4)CC3)cc2)CCN(C2CC2)CC1` [Example 419], the results for the negative logarithm of the IC50 (pIC50) on MMP-1, on MMP-13 and on MMP-2 were under 5.00, 8.38 and 6.40, respectively.
The corresponding values for `O=C(c1ccco1)N1CCC(C(=O)NO)(S(=O)(=O)c2ccc(N3CCC(OCc4ccc(F)cc4)CC3)cc2)CC1` [Example 424] are under 5.00, 8.26 and 7.10.
In the case of `O=C(c1ccco1)N1CCC(C(=O)NO)(S(=O)(=O)c2ccc(N3CCC(OCc4ccc(Cl)cc4)CC3)cc2)CC1` [Example 432], the negative-log IC50 (pIC50) at MMP-1 was under 5.00; on MMP-13, 7.86; at MMP-2, 7.00.
Turning to `O=C(c1ccco1)N1CCC(C(=O)NO)(S(=O)(=O)c2ccc(N3CCC(OCc4ccc(F)c(C(F)(F)F)c4)CC3)cc2)CC1` [Example 433], the values for the negative-log IC50 (pIC50) at MMP-1, at MMP-13 and on MMP-2 were under 5.00, 6.35 and 5.46, respectively.
Regarding `O=C(c1ccco1)N1CCC(C(=O)NO)(S(=O)(=O)c2ccc(N3CCC(OCc4ccc(F)cc4C(F)(F)F)CC3)cc2)CC1` [Example 434], the negative-log IC50 (pIC50) at MMP-1 was under 5.00; at MMP-13, 6.72; at MMP-2, 5.43.
Regarding `COc1ccc(C(=O)C2CCN(c3ccc(S(=O)(=O)C4(C(=O)NO)CCN(C(=O)OCc5ccccc5)CC4)cc3)CC2)cc1` [Example 435], the pIC50 on MMP-1 is under 5.00; on MMP-13 it was 8.23; at MMP-2, 5.82.
With `COc1ccc(C(=O)C2CCN(c3ccc(S(=O)(=O)C4(C(=O)NO)CCN(c5ccncc5)CC4)cc3)CC2)cc1` [Example 438], the pIC50 was under 5.00 at MMP-1, 8.85 at MMP-13 and 6.80 at MMP-2.
As to `CC(C)N1CCC(C(=O)NO)(S(=O)(=O)c2ccc(OC(F)(F)F)cc2)CC1` [Example 439], the pIC50 at MMP-1 is under 5.00; on MMP-13, 5.97; at MMP-2 it was 5.80.
Regarding `CCCCOC1CCN(c2ccc(S(=O)(=O)C3(C(=O)NO)CCN(C4CC4)CC3)cc2)CC1` [Example 440], the negative-log IC50 (pIC50) is under 5.00 on MMP-1, 7.57 at MMP-13 and 6.62 at MMP-2.
For the compound `COc1ccc(C(=O)C2CCN(c3ccc(S(=O)(=O)C4(C(=O)NO)CCN(C5CC5)CC4)cc3)CC2)cc1` [Example 441], the results for the negative-log IC50 (pIC50) on MMP-1, on MMP-13 and on MMP-2 were under 5.00, 8.22 and 6.38, respectively.
On to `CCCCOC1CCN(c2ccc(S(=O)(=O)C3(C(=O)NO)CCN(C(=O)OC(C)(C)C)CC3)cc2)CC1` [Example 442], for which the pIC50 was under 5.00 at MMP-1, 8.00 at MMP-13 and 6.68 on MMP-2.
Regarding `CCCCOC1CCN(c2ccc(S(=O)(=O)C3(C(=O)NO)CCNCC3)cc2)CC1` [Example 443], the pIC50 on MMP-1 was under 5.00; on MMP-13, 7.05; at MMP-2, 5.66.
As for `COCCN1CCC(C(=O)NO)(S(=O)(=O)c2ccc(N3CCC(OCc4ccc(Cl)cc4)CC3)cc2)CC1` [Example 445], the pIC50 at MMP-1 was under 5.00; on MMP-13, 7.05; at MMP-2, 5.92.
The like results for `COCCN1CCC(C(=O)NO)(S(=O)(=O)c2ccc(N3CCC(OCc4ccc(F)c(C(F)(F)F)c4)CC3)cc2)CC1` [Example 446] were, in that order, under 5.00, 6.57 and 5.15.
Turning to `COCCN1CCC(C(=O)NO)(S(=O)(=O)c2ccc(N3CCC(OCc4ccc(F)cc4C(F)(F)F)CC3)cc2)CC1` [Example 447], the pIC50 on MMP-1 is under 5.00; on MMP-13, 7.62; at MMP-2 it was 6.81.
The corresponding values for `COCCN1CCC(C(=O)NO)(S(=O)(=O)c2ccc(N3CCC(OCc4ccc(F)cc4)CC3)cc2)CC1` [Example 448] are under 5.00, 8.62 and 6.27.
In the case of `CC(C)N1CCC(C(=O)NO)(S(=O)(=O)c2ccc(Oc3ccc(OC(F)(F)F)cc3)cc2)CC1` [Example 453], the results for the pIC50 on MMP-1, at MMP-13 and at MMP-2 were under 5.00, 9.40 and 7.46, respectively.
In the case of `O=C(NO)C1(S(=O)(=O)c2ccc(N3CCc4ccccc4C3)cc2)CCN(C2CC2)CC1` [Example 455], the pIC50 is under 5.00 on MMP-1, 8.20 on MMP-13 and 7.57 on MMP-2.
In the case of `C#CCN1CCC(C(=O)NO)(S(=O)(=O)c2ccc(S(=O)(=O)c3ccccc3)cc2)CC1` [Example 457], the pIC50 at MMP-1 is under 5.00; on MMP-13, 5.74; on MMP-2 it was 5.57.
`CC1CC(C)CN(C(=O)C2CCN(c3ccc(S(=O)(=O)C4(C(=O)NO)CCN(C(C)C)CC4)cc3)CC2)C1` (stereo not drawn) [Example 458]: the results for the negative logarithm of the IC50 (pIC50) on MMP-1, at MMP-13 and on MMP-2 were under 5.00, 6.68 and 5.68, respectively.
